# From patent publication US20260345582A1, “PRODRUG FOR ANTI-AGING RELATED DISEASES AND USE METHOD THEREOF” (Beijing SunCell Bio-Medical Co., Ltd., priority 2022, published 2026)
# Columns and labels:
# [1] = liver microsomal metabolic stability, mouse
# Protocol: (§1) Hepatic Microsomal Metabolic Stability
# (§2) A13bGa1 was co-incubated with the mouse, rat, canine, monkey and human […] and the incubation medium at a final drug concentration of 1 μM in the incubation system for 60 minutes. Samples were taken and analyzed at time points 0, 15, 30, 45 and 60 minutes during the incubation. The reaction was terminated by adding an amount of acetonitrile solution containing the internal standard. […] The residual percentage, half-life, intrinsic clearance, amplified clearance, hepatic clearance and hepatic extraction ratio were determined. The entire experiment was performed in triplicate. All data calculations were performed by Microsoft Excel software. Peak areas were detected by extracting the ionic spectrum. The in vitro half-life (t1/2) of the parent compound was detected by fitting the natural logarithm of the percentage elimination of the parent compound linearly to time.
# (§3) The in vitro intrinsic clearance (in μL/min/mg protein) was calculated using the following equation: in vitro CLint=kV/N
# (§4) The amplified clearance (in mL/min/kg) was calculated using the following equation: Amplified CLint=kV/N×the amplification factor
# (§5) The hepatic clearance (in mL/min/kg) was calculated using the following equation: The predicted hepatic CLH=(Q×Fu/RB×the amplified CLint)/(Q+Fu/RB×the amplified CLint) • V=the incubation volume per well (0.2 mL); • N=the total amount of protein (mg) • Q=the hepatic blood flow (mL/min/kg) • Fu=the plasma free rate (assumed to be 1) • RB=the whole blood partition coefficient (assumed to be 1)
# (§6) The hepatic uptake rate was calculated using the following equation:
# (§7) The hepatic extraction ratio (ER)=(the predicted hepatic CLH)/Q
# [2] = system: mouse model of oxygen-induced retinopathy; assay: oxygen-induced retinopathy, retinal microvessel staining analysis; type: in vivo, C57BL6/J mice; conditions: single intravitreal injection
# Protocol: A. Modelling of a mouse model of oxygen-induced retinopathy, and the schematic diagram of treatment. C57BL6/J mice were cultured in 75% hyperoxia for 5 consecutive days starting from postnatal day 7, and treated by a single intravitreal administration of the drug on postnatal day 12, and then transferred to normal air atmosphere until day 17 for retinal sampling and analysis. P0, P7, P12, and P17 in the panel represent mice on postnatal days 0, 7, 12, and 17, respectively.
# B. Representative diagram of the reduction of pathological avascular areas in the mouse retina after the treatment by intravitreal injection of A13bGa1. Mouse retinal microvessels were labelled by IB4 staining for the central avascular area analysis, wherein the green fluorescence represents the IB4-labelled microvascular areas, and the avascular areas are circled with white markers in the panel.
# C. Statistical results of the retina pathological avascular areas after treatment of different groups of mice. […] The statistics in the panel are the quantitative results of the ischemic areas in the retinas of each sample compared with that of the VEH control group after the areas were taken as the means, and the error bar is a standard deviation. […]
# [3] = plasma metabolic stability, human; type: in vitro ADME; conditions: 120 min
# Protocol: (§8) Plasma Metabolic Stability
# (§9) Termination of the reaction was accomplished by the addition of 3× volume of acetonitrile and centrifugation at 16000 g for 20 minutes. The supernatant was taken for a LC-MS/MS analysis. The chromatographic column: Waters XSelect HSS T3; the flow rate: 500 μL/min; the eluent: A, water (0.1% formic acid); B, acetonitrile (0.1% formic acid); the gradient elution: 0-1.5 min, 5% B, 1.5-9 min, 5%-80% B, 9-12 min, 80%-100% B, 12-14 min, 100% B, 14-14.3 min, 100%-5% B, 14.3-15 min, 5% B.
# [4] = liver microsomal metabolic stability, all species; type: in vitro ADME, rat and mouse; conditions: human, monkey, canine, rat, mouse; Table 4
# Protocol: as §1
# The entire experiment was performed in triplicate. All data calculations were performed by Microsoft Excel software. Peak areas were detected by extracting the ionic spectrum.
# The in vitro half-life (t1/2) was calculated by slope: in vitro t½=0.693/k
# [5] = plasma metabolic stability, mouse; type: in vitro ADME; conditions: 120 min
# Protocol: as §8, §9
# [6] = liver microsomal metabolic stability, human
# Protocol: as §1, §2, §3, §4, §5, §6, §7
# [7] = 10 μM prodrug, read-out: The peak area after normalisation at minute 120, oxidative dehydrogenation metabolite
# [8] = 10 μM, read-out: The peak area after normalisation at minute 120, initial drug
compound,measurement,setting,value
Cc1c(-c2ccc(N3CCc4cccc(C(=O)Nc5nc6ccccc6s5)c4C3)nc2C(=O)OCc2ccc(O[C@@H]3O[C@H](CO)[C@H](O)[C@H](O)[C@H]3O)c([N+](=O)[O-])c2)cnn1CC12CC3CC(CC(C3)C1)C2 [Compound A13bGa1],The hepatic extraction ratio (E),[1],0.40
same,The intrinsic clearance in vitro Clint,"[1]; 1 μM, 60 min",13.79 μL/min/mg protein
same,The predicted intrinsic hepatic clearance Clint,[1]; Fu and RB assumed to be 1,36.24 mL/min/kg
same,CLint scaled at 1 µM,[1]; microsomes,60.7 mL/min/kg
same,"half-life at 1 h, 1 µM",[1]; microsomes,101 min
same,retinal oxygen-induced microangiopathy,[2],effectively improve the retinal oxygen-induced microangiopathy
same,area of the abnormal neovascular area in the retinas,"[2]; 50 ng and 100 ng, FIGS. 6D and 6E",significantly reduced
same,"metabolised at 2 h, 10 µM",[3]; [7],0.07%
same,"remaining at 2 h, 10 µM",[3]; [8],99.9%
same,liver microsomal metabolic stability,[4],good moderate metabolic stability
same,"metabolised at 2 h, 10 µM",[5]; [7],0.04%
same,"remaining at 2 h, 10 µM",[5]; [8],100%
same,The hepatic extraction ratio (E),[6],0.86
same,The predicted intrinsic hepatic clearance Clint,[6]; Fu and RB assumed to be 1,17.90 mL/min/kg
same,"CLint scaled at 1 h, 1 µM",[6]; microsomes,132 mL/min/kg
same,"half-life at 1 h, 1 µM",[6]; microsomes,13.1 min
same,"microsomal CLint at 1 h, 1 µM",[6]; microsomes,106 µL/min/mg
